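In this assay, cells in 96-well plates receive the compound at five concentrations for 48 hours. Endpoints are linearly interpolated between the surrounding concentrations. The concentration for full growth arrest is given as TGI.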
Legend:
Assay in all cases: NCI tumour cell line growth inhibition, 48 h
UACC-62 melanoma = test system: UACC-62 melanoma
MDA-N = test system: MDA-N
HT29 colon = test system: HT29 colon
ACHN renal = test system: ACHN renal
NCI-H226 lung = test system: NCI-H226 lung
NCI-H23 lung = test system: NCI-H23 lung
RPMI-8226 leukemia = test system: RPMI-8226 leukemia
MALME-3M melanoma = test system: MALME-3M melanoma
SK-MEL-2 melanoma = test system: SK-MEL-2 melanoma
SK-MEL-5 melanoma = test system: SK-MEL-5 melanoma
OVCAR-3 ovarian = test system: OVCAR-3 ovarian
UACC-257 melanoma = test system: UACC-257 melanoma
A549 NSCLC = test system: A549 NSCLC
MOLT-4 leukemia = test system: MOLT-4 leukemia
SF-295 CNS = test system: SF-295 CNS
MDA-MB-435 = test system: MDA-MB-435
U251 CNS = test system: U251 CNS
HCT-15 colon = test system: HCT-15 colon
EKVX NSCLC = test system: EKVX NSCLC
HL-60(TB) leukemia = test system: HL-60(TB) leukemia
KM12 colon = test system: KM12 colon
M14 melanoma = test system: M14 melanoma
DU-145 prostate = test system: DU-145 prostate
SW-620 colon = test system: SW-620 colon
COLO 205 colon = test system: COLO 205 colon
LOX IMVI melanoma = test system: LOX IMVI melanoma
IGROV1 ovarian = test system: IGROV1 ovarian
NCI/ADR-RES ovarian = test system: NCI/ADR-RES ovarian
786-0 renal = test system: 786-0 renal
SNB-19 CNS = test system: SNB-19 CNS
HCC-2998 colon = test system: HCC-2998 colon
A498 renal = test system: A498 renal
HCT-116 colon = test system: HCT-116 colon
CCRF-CEM leukemia = test system: CCRF-CEM leukemia
PC-3 prostate = test system: PC-3 prostate
OVCAR-5 ovarian = test system: OVCAR-5 ovarian
SNB-75 CNS = test system: SNB-75 CNS
SN12C renal = test system: SN12C renal
HOP-92 NSCLC = test system: HOP-92 NSCLC
SF-539 CNS = test system: SF-539 CNS
K-562 leukemia = test system: K-562 leukemia
NCI-H460 lung = test system: NCI-H460 lung
CAKI-1 renal = test system: CAKI-1 renal
TK-10 renal = test system: TK-10 renal
OVCAR-4 ovarian = test system: OVCAR-4 ovarian
NCI-H522 lung = test system: NCI-H522 lung
RXF 393 renal = test system: RXF 393 renal
BT-549 breast = test system: BT-549 breast
MDA-MB-231 breast = test system: MDA-MB-231 breast
HS 578T breast = test system: HS 578T breast
T-47D breast = test system: T-47D breast
OVCAR-8 ovarian = test system: OVCAR-8 ovarian
SF-268 CNS = test system: SF-268 CNS
UO-31 renal = test system: UO-31 renal
MCF7 breast = test system: MCF7 breast
HOP-62 NSCLC = test system: HOP-62 NSCLC
SK-OV-3 ovarian = test system: SK-OV-3 ovarian
SR leukemia = test system: SR leukemia
SK-MEL-28 melanoma = test system: SK-MEL-28 melanoma

CC(=O)NCCC1CN(C(=O)/C=C\I)c2ccccc21 (centres undefined)
TGI (UACC-62 melanoma): 28.3 µM
TGI (MDA-N): 26.3 µM
TGI (HT29 colon): 24 µM
TGI (ACHN renal): 28.5 µM
TGI (NCI-H226 lung): 27.6 µM
TGI (NCI-H23 lung): 35.2 µM
TGI (RPMI-8226 leukemia): 9.5 µM
TGI (MALME-3M melanoma): 28.5 µM
TGI (SK-MEL-2 melanoma): 29.7 µM
TGI (SK-MEL-5 melanoma): 16 µM
TGI (OVCAR-3 ovarian): 28.2 µM
TGI (UACC-257 melanoma): 26.7 µM
TGI (A549 NSCLC): 31.4 µM
TGI (MOLT-4 leukemia): 13.7 µM
TGI (SF-295 CNS): 31.5 µM
TGI (MDA-MB-435): 30.8 µM
TGI (U251 CNS): 25.9 µM
TGI (HCT-15 colon): 22.1 µM
TGI (EKVX NSCLC): 34 µM
TGI (HL-60(TB) leukemia): 8.49 µM
TGI (KM12 colon): 18.7 µM
TGI (M14 melanoma): 24 µM
TGI (DU-145 prostate): 33.1 µM
TGI (SW-620 colon): 38.6 µM
TGI (COLO 205 colon): 23.9 µM
TGI (LOX IMVI melanoma): 11.1 µM
TGI (IGROV1 ovarian): 28.4 µM
TGI (NCI/ADR-RES ovarian): > 61.7 µM
TGI (786-0 renal): 24.7 µM
TGI (SNB-19 CNS): 46.9 µM
TGI (HCC-2998 colon): 28.5 µM
TGI (A498 renal): 41.7 µM
TGI (HCT-116 colon): 28.8 µM
TGI (CCRF-CEM leukemia): 13.3 µM
TGI (PC-3 prostate): 24 µM
TGI (OVCAR-5 ovarian): 30.2 µM
TGI (SNB-75 CNS): 33 µM
TGI (SN12C renal): 13.1 µM
TGI (HOP-92 NSCLC): 46.3 µM
TGI (SF-539 CNS): 17.8 µM
TGI (K-562 leukemia): > 40.3 µM
TGI (NCI-H460 lung): 22.3 µM
TGI (CAKI-1 renal): 3.32 µM
TGI (TK-10 renal): 19.5 µM
TGI (OVCAR-4 ovarian): 39 µM
TGI (NCI-H522 lung): 3.29 µM
TGI (RXF 393 renal): 26.3 µM
TGI (BT-549 breast): 38.2 µM
TGI (MDA-MB-231 breast): 8.14 µM
TGI (HS 578T breast): 67.6 µM
TGI (T-47D breast): 37.6 µM
TGI (OVCAR-8 ovarian): 35.8 µM
TGI (SF-268 CNS): 31.6 µM
TGI (UO-31 renal): 18.8 µM
TGI (MCF7 breast): 13.4 µM
TGI (HOP-62 NSCLC): 23.3 µM
TGI (SK-OV-3 ovarian): 34.9 µM
TGI (SR leukemia): > 65.9 µM
TGI (SK-MEL-28 melanoma): 31.6 µM
